Experimental findings from patent US7049289B1, “Labelled glutamine and lysine analogues” (Amersham PLC, priority 1998, dated 2006) are described below.

*1 amine or outer side, *2 acyl side, *3 side chain or, on linkers, in order; H or OH if unused. The star is where a group is joined. Adamantane1carbonyl = O=C(C12CC3CC(CC(C3)C1)C2)*; Fmoc = O=C(OCC1c2ccccc2-c2ccccc21)*; Glutaryl = O=C(CCCC(=O)[*:2])[*:1]

For experiment [1], the target named is T1, fibrin (in vitro human plasma clot) (Homo sapiens, UniProt P02671+P02675+P02679).
T1 construct: about 400 μl of human plasma containing the radiolabelled substrate; from tissue; host or cells: human plasma, clotted in vitro with added thrombin and calcium chloride
T1 sequence (P02671 20-644 isoform P02671-2 limits assumed): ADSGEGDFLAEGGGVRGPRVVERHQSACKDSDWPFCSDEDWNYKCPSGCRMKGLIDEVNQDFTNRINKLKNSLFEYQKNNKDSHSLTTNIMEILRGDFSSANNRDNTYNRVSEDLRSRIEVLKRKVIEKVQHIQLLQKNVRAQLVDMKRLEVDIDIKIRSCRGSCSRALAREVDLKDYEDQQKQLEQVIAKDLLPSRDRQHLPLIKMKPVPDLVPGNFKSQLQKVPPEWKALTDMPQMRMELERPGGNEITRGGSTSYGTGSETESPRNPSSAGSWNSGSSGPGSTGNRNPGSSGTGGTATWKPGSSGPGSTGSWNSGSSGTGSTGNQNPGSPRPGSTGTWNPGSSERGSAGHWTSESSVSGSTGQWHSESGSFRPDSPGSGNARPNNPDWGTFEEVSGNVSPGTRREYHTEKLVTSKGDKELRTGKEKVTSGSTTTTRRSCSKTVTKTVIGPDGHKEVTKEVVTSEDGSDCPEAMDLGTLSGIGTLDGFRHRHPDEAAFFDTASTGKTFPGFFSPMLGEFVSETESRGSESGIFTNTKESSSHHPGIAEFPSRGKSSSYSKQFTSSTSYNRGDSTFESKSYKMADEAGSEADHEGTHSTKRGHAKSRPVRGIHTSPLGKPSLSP
T1 sequence (P02675 45-491 limits assumed): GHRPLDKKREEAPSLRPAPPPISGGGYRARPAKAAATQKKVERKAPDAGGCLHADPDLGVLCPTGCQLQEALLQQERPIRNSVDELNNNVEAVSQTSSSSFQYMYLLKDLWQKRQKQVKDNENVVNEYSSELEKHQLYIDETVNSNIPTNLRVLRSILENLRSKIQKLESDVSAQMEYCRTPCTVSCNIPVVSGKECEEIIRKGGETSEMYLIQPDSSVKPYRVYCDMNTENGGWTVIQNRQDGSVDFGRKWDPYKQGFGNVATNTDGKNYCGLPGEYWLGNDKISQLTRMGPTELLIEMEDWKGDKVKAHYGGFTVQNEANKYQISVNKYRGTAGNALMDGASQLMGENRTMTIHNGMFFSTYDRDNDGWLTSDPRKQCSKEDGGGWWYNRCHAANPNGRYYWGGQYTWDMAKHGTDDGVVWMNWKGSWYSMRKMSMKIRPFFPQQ
T1 sequence (P02679 27-437 isoform P02679-2 limits assumed): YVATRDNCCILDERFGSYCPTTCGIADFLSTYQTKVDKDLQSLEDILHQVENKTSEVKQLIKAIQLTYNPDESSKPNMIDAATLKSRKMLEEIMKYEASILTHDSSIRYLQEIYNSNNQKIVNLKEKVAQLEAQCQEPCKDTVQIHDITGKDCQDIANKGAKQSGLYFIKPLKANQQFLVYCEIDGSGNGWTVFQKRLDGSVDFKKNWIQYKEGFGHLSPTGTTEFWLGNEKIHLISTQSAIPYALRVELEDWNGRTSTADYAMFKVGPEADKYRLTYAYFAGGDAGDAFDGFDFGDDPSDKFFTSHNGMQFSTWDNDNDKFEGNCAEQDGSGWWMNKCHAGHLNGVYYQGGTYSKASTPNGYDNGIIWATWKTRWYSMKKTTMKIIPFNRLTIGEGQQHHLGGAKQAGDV
The experiment in a line: Incorporation into human plasma clots in vitro. Type of experiment: biochemical. As to conditions: for % specific uptake: % retained (with thrombin) - % retained (no thrombin); for % retained (no thrombin): control without thrombin and calcium chloride (non-specific binding); for % retained (with thrombin): human plasma clot, 60 minutes, ca. 20° C. In a few lines:
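Human plasma containing radiolabelled substrate (typically 10 kBq/ml) clotted with thrombin in Tris-saline pH 7.5 with 4 mM CaCl2, 60 min at ca. 20 °C, then stopped with cold EDTA. Clots collected on nitrocellulose filters and washed; incorporation is filter-retained radioactivity fraction minus non-specific binding from thrombin/calcium-free controls.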

Experiment [2] is described as follows: Incorporation into clots induced in a rat model (rat inferior vena cava model). In kind it is in vivo, rat (Male Wistar). The conditions noted are these: for % id/g (clot) / Rel. Conc. (cpm/g of clot by dose/g animal): sacrificed after 60 min. A digest of the protocol:
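Male Wistar rats (250–350 g) under 15% urethane anaesthesia, with the vena cava isolated by laparotomy. Compounds given 5 min (fresh clot) or 60 min (aged clot) after clot induction; clot, blood, lung and heart removed 60 min later, weighed and counted. Uptake expressed as cpm/g clot per dose/g animal and as clot-to-background tissue ratio.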

[3] abbreviates: Aged Clots: injected 60 min post-induction.
[4] abbreviates: Fresh Clots: injected 5 min post-induction.

With “Ac-N—CH2NH2-QEQVSP(D-Y)TLL(D-K)G-Pn216 [^99mTc-Cmpd 34]”, in experiment [1], the “% specific uptake” value came to 5.4%, the “% retained (no thrombin)” value is given as 0.1%, the “% retained (with thrombin)” value came out at 5.5% and the “in vitro clot uptake (in words)” value is reported as “significant reduction in uptake”. In experiment [2] (Aged Clots), this substance registered a Clot/blood of 3 and a Clot/liver of 6. Also, in experiment [2] (setting [3]), the “% id/g (clot)” value was determined as 0.4 ± 0.1 % id/g and the “Rel. Conc. (cpm/g of clot by dose/g animal)” value is listed as 1.4 ± 0.4. In experiment [2] (Fresh Clots), this substance came in with a Clot/blood of 2, a Clot/heart of 6, a Clot/liver of 8 and a Clot/lung of 3. Also, in experiment [2] (setting [4]), the “% id/g (clot)” value was found to be 0.5 ± 0.2 % id/g and the “Rel. Conc. (cpm/g of clot by dose/g animal)” value is recorded as 1.8 ± 0.5.

For the substance “Adamantoyl-NQEQVSPYTLLKG-Pn216 (Adamantane1carbonyl-NQEQVSPYTLLKG-Pn216; also: 99mTc complex) [^99mTc-Cmpd 11]”, in experiment [1], the “% specific uptake” value was found to be 66.9%, the “% retained (no thrombin)” value was 1.2% and the “% retained (with thrombin)” value came to 68.1%. Moreover, in experiment [2] (Aged Clots), the Clot/blood was found to be 5, the Clot/heart is listed as 13, the Clot/liver was determined as 4 and the Clot/lung stood at 6. Moreover, in experiment [2] (setting [3]), the “% id/g (clot)” value is 0.4 ± 0.3 % id/g and the “Rel. Conc. (cpm/g of clot by dose/g animal)” value is listed as 1.2 ± 0.8. In experiment [2] (Fresh Clots), this substance showed a Clot/blood of 10, a Clot/heart of 24, a Clot/liver of 11 and a Clot/lung of 11. For the same substance, in experiment [2] (setting [4]), the “% id/g (clot)” value worked out at 1.1 ± 0.4 % id/g and the “Rel. Conc. (cpm/g of clot by dose/g animal)” value came out at 3.3 ± 1.1.

Take “Cyclo-[NQEQVSPYTLLKG] (cyclo(NQEQVSPYTLLKG); also: 123I label, place not given here) [^123I-Cmpd 44]”: in experiment [1], the “% specific uptake” value turned out to be 13.8%, the “% retained (no thrombin)” value is recorded as 0.3% and the “% retained (with thrombin)” value amounted to 14.1%. In experiment [2] (Aged Clots), this substance registered a Clot/blood of 0.9, a Clot/heart of 1, a Clot/liver of 1 and a Clot/lung of 2. In addition, in experiment [2] (setting [3]), the “% id/g (clot)” value is given as 0.5 ± 0.03 % id/g and the “Rel. Conc. (cpm/g of clot by dose/g animal)” value came to 1.2 ± 0.1. In experiment [2] (Fresh Clots), this substance yielded a Clot/blood of 0.9, a Clot/heart of 1, a Clot/liver of 2 and a Clot/lung of 1.5. Besides, in experiment [2] (setting [4]), the “% id/g (clot)” value turned out to be 0.4 ± 0.1 % id/g and the “Rel. Conc. (cpm/g of clot by dose/g animal)” value amounted to 1.1 ± 0.2.

In the case of “Fmoc-NQEQVSP(I-Y)TLLKG-Pn216 [^99mTc-Cmpd 26]”, in experiment [1], the “% specific uptake” value is given as 55.1%, the “% retained (no thrombin)” value is 8.2% and the “% retained (with thrombin)” value is 63.3%. In experiment [2] (Aged Clots), this substance returned a Clot/blood of 7, a Clot/heart of 31, a Clot/liver of 54 and a Clot/lung of 12. In experiment [2] (setting [3]), the “% id/g (clot)” value is given as 4.0 ± 0.9 % id/g and the “Rel. Conc. (cpm/g of clot by dose/g animal)” value worked out at 12.9 ± 3.5. Also, in experiment [2] (Fresh Clots), the Clot/blood came out at 16, the Clot/heart amounted to 38, the Clot/liver stood at 16 and the Clot/lung worked out at 11. In experiment [2] (setting [4]), the “% id/g (clot)” value came to 14.1 ± 10 % id/g and the “Rel. Conc. (cpm/g of clot by dose/g animal)” value is 41.4 ± 28.

As for “Fmoc-NQEQVSPYTLLKG-Pn216 (also: 99mTc complex) [^99mTc-Cmpd 9]”, in experiment [1], the “% specific uptake” value worked out at 42.8%, the “% retained (no thrombin)” value is recorded as 2.7% and the “% retained (with thrombin)” value amounted to 44.5%. In experiment [2] (Aged Clots), this substance registered a Clot/blood of 8, a Clot/heart of 21, a Clot/liver of 6 and a Clot/lung of 7. Besides, in experiment [2] (setting [3]), the “% id/g (clot)” value stood at 3.7 ± 0.4 % id/g and the “Rel. Conc. (cpm/g of clot by dose/g animal)” value was 11.4 ± 1.5. In experiment [2] (Fresh Clots), this substance yielded a Clot/blood of 13, a Clot/heart of 32, a Clot/liver of 13 and a Clot/lung of 12. In addition, in experiment [2] (setting [4]), the “% id/g (clot)” value was 8.8 ± 3.6 % id/g and the “Rel. Conc. (cpm/g of clot by dose/g animal)” value was 24.8 ± 9.6.

Consider “Fmoc-NQQQ(D-V)S(OMe)PLG-Pn216 [^99mTc-Cmpd 37]”, for which, in experiment [1], the “% specific uptake” value came to 12.8%, the “% retained (no thrombin)” value turned out to be 0.2% and the “% retained (with thrombin)” value is reported as 13.0%. In experiment [2] (Aged Clots), the Clot/blood is on record as 0.4, the Clot/heart turned out to be 2, the Clot/liver is recorded as 9 and the Clot/lung turned out to be 1. In experiment [2] (setting [3]), the “% id/g (clot)” value stood at 0.2 ± 0.03 % id/g and the “Rel. Conc. (cpm/g of clot by dose/g animal)” value is listed as 0.5 ± 0.1. In experiment [2] (Fresh Clots), this substance registered a Clot/blood of 0.6, a Clot/heart of 1, a Clot/liver of 1 and a Clot/lung of 0.7. For the same substance, in experiment [2] (setting [4]), the “% id/g (clot)” value turned out to be 0.4 ± 0.2 % id/g and the “Rel. Conc. (cpm/g of clot by dose/g animal)” value was determined as 0.9 ± 0.4.

As to “NQEQVSPYTLLK [^123I-Cmpd 1, reference compound]”, in experiment [1], the “% specific uptake” value came out at 12.6%, the “% retained (no thrombin)” value amounted to 2.0% and the “% retained (with thrombin)” value worked out at 14.6%. Further, in experiment [2], the “RC (in vivo clot uptake)” value amounted to 1.5. This substance also yielded a Clot/blood in experiment [2] (Fresh Clots) of 1. Moreover, in experiment [2] (setting [4]), the “% id/g (clot)” value is 0.5 ± 0.1 % id/g and the “Rel. Conc. (cpm/g of clot by dose/g animal)” value worked out at 1.6 ± 0.4.

For “Pn44-CO(CH2)3CO-NQEQVSPYTLLKG-NH2 ({Pn44-Glutaryl}-NQEQVSPYTLLKG-NH2; also: 99mTc complex) [^99mTc-Cmpd 38]”, in experiment [1], the “% specific uptake” value is 20.3%, the “% retained (no thrombin)” value is 0.7% and the “% retained (with thrombin)” value stood at 21.0%. Further, in experiment [2] (Aged Clots), the Clot/blood was determined as 3, the Clot/heart came to 1, the Clot/liver turned out to be 2 and the Clot/lung was determined as 0.5. Besides, in experiment [2] (setting [3]), the “% id/g (clot)” value came out at 0.8 ± 0.3 % id/g and the “Rel. Conc. (cpm/g of clot by dose/g animal)” value was 2.4 ± 0.7. In addition, in experiment [2] (Fresh Clots), the Clot/blood came out at 5, the Clot/heart was 15, the Clot/liver was 3 and the Clot/lung amounted to 6. For the same substance, in experiment [2] (setting [4]), the “% id/g (clot)” value is 1.9 ± 0.5 % id/g and the “Rel. Conc. (cpm/g of clot by dose/g animal)” value is reported as 5.4 ± 1.5.

On to “Pn216-CO(CH2)3CO-G(D-K)(D-L)(D-L)(D-T)(D-Y)(D-P)(D-S)(D-V)NH2 [^99mTc-Cmpd 36]”, for which, in experiment [1], the “% specific uptake” value came to 8.6%, the “% retained (no thrombin)” value stood at 0.1%, the “% retained (with thrombin)” value was found to be 8.7% and the “in vitro clot uptake (in words)” value was “significant reduction in uptake”. In experiment [2] (Aged Clots), the Clot/blood is given as 0.6, the Clot/heart was determined as 18, the Clot/liver stood at 4 and the Clot/lung is 10. In experiment [2] (setting [3]), the “% id/g (clot)” value is 0.1 ± 0.02 % id/g and the “Rel. Conc. (cpm/g of clot by dose/g animal)” value is reported as 0.2 ± 0.1. In experiment [2] (Fresh Clots), this substance showed a Clot/blood of 1, a Clot/heart of 3, a Clot/liver of 4 and a Clot/lung of 1. Besides, in experiment [2] (setting [4]), the “% id/g (clot)” value is reported as 0.2 ± 0.1 % id/g and the “Rel. Conc. (cpm/g of clot by dose/g animal)” value is on record as 0.7 ± 0.3.
